Experiments:
[1] = system: ID8 Trp53−/− Brca2−/− ovarian carcinoma cells; details: mouse, in vivo, 10 mg/kg
Method: After 5 (IP model) or 10 (SC model) weeks of tumor growth, mice received an IV bolus dose of TAX2-Cy5 at 10 mg/kg BW in injectable saline solution. After in vivo imaging and mouse euthanasia, subcutaneous tumor or peritoneal tumor mass and metastatic nodules, were collected and imaged with instrument sensitivity set to “Normal” using the same protocol as described above for healthy mice. TAX2-Cy5 concentration was calculated as described above.

[2] = Toxicology and safety pharmacology studies in rats; details: Sprague–Dawley rats, data not shown
[3] = system: ID8 Trp53−/− Brca2−/− cells; assay: TAX2 efficacy alone or in sequential combination with olaparib, metastatic peritoneal carcinomatosis model; format: in vivo, C57BL/6 J mice; details: for Mouse survival, prolonged olaparib design: from day 7 post inoculation olaparib 50 mg/kg per os daily 5 weeks, then TAX2 30 mg/kg IV three times a week, n = 7–11 per group, p = 0.0014 post discontinuation, median survival p = 0.0205; for Animal survival versus controls (Kaplan–Meier): same regimens as Fig. 6b, Gehan–Breslow–Wilcoxon test, TAX2 p = 0.0347 vs controls; for Median survival: treatment from day after IP inoculation, TAX2 30 mg/kg IV 3 times weekly for 6 weeks or olaparib 50 mg/kg per os daily for 2 weeks, n = 9–19 per group, end point 20% body weight gain
Method: Eight-week-old C57BL/6 J mice were IP injected with 2 × 10^6 ID8 Trp53^−/− Brca2^−/− cells in 300 µL HBSS. For mouse treatments, TAX2 peptide was IV injected at 30 to 100 mg/kg, three times a week; olaparib (catalog no. M1664, AbMole, TX, USA) was given per os at a 50 mg/kg BW dose, daily. Two different sequential treatments were performed. In the first one, mice were treated one day after tumor inoculation with olaparib for 2 weeks followed by 4 weeks of TAX2. In the second one, mice were randomized 7 days after tumor inoculation and first treated with olaparib daily for 5 weeks or an identical volume of olaparib vehicle composed of 10% (2-hydroxypropyl)-β-cyclodextrin and 10% DMSO in D-PBS buffer. Mice were then sequentially treated with TAX2 for a maximum of 3 weeks. […] Mice were weighed twice or thrice a week and abdominal distension was measured using a digital caliper. Tumor burden was monitored using body weight change as a measure of ascitic fluid buildup post inoculation as previously described in the same model. Gain of 20% body weight was considered as the end point for survival analysis. In this orthotopic model, it is impossible to determine whether the absence of tumor uptake is treatment related or not. Therefore, mice showing no signs of tumor development (carcinosis, nodules, or ascites) at the time of euthanasia were excluded to avoid misinterpretation of the results.
Two-tailed Pearson and Spearman tests were used to assess the correlation between two linear or monotonic variables, respectively, and Mann–Whitney test was used where appropriate. Mouse survival curves were generated using Kaplan–Meier analysis with Gehan–Breslow–Wilcoxon tests as previously reported for ID8 syngeneic model. All graphs and statistics were generated with Prism (GraphPad Software, La Jolla, CA) using the statistical tests and sample sizes indicated in the figure legends.

[4] = Toxicology and safety pharmacology studies in dogs; details: beagle dogs, data not shown

Row | SMILES | Localization at tumor sites [1] | Tolerability after systemic administration [2] | Mice surviving for the duration of the experimental protocol (weak peritoneal carcinomatosis) ([3]; TAX2 30 mg/kg IV 3 times weekly for 6 weeks) | Mouse survival, prolonged olaparib design [3] | Animal survival versus controls (Kaplan–Meier) [3] | Median survival ([3]; control 38 days) | Tolerability after systemic administration [4] | Mice exhibiting no response to olaparib (tumor burden) ([3]; olaparib 50 mg/kg per os daily for 2 weeks, n = 20, tumor burden by body weight change) | Median survival of olaparib-resistant mice ([3]; olaparib alone 50 mg/kg per os daily for 2 weeks, unresponsive mice n = 14, control 38 days)
1 | CC(C)C[C@@H]1NC(=O)[C@H](CC(C)C)NC(=O)[C@H](CCC(N)=O)NC(=O)[C@H](CO)NC(=O)[C@H](C(C)C)NC(=O)[C@H](CCC(=O)O)NC(=O)[C@@H](N)CSSC[C@@H](C(=O)O)NC(=O)[C@H](C)NC(=O)[C@H](CC(=O)O)NC(=O)CNC(=O)[C@H](CCCCN)NC1=O [TAX2] | localization of TAX2 at tumor sites | very well tolerated | 1 out of 9 | further improved survival | modestly but significantly extended the survival rate | 44 days | very well tolerated |  | 
2 | O=C(c1cc(Cc2n[nH]c(=O)c3ccccc23)ccc1F)N1CCN(C(=O)C2CC2)CC1 [olaparib] |  |  |  | increased mouse survival | failed to improve animal survival | 43 days |  | 75% | 41 days

Source: article PMC11323699, “The CD47/TSP-1 axis: a promising avenue for ovarian cancer treatment and biomarker research” (Molecular Cancer, 2024)
